Results on 73 sequences are retold here after the supplement of paper PMC11208160.
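Further: IS621 recombinase and bridge RNA in Escherichia coli cells.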

A short description of the series: recombinant barcode read abundance after kanamycin selection (control-corrected) (log10(CPM+1)); higher = more efficient recombination; sequences stand for … in AGTGCAGAGAAAATCGGCCAGTTTTCTCTGCCTGCAGTCCGCATGCCGT…AGATTTATGCAGCGGACTGCCTTTCTCCCAAAGTGATAAACCGGACAGTATCATGGACCGGTTTTCCCGGTAATCCGTATTTGCAAGGTTGGTTTCACT; site = the 11-nt target. The protocol:
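Pooled E. coli target-specificity screen for the IS621 bridge recombinase. Each library plasmid pairs an 11-nt target (CT core) with a bridge RNA whose target-binding loop (9-nt LTG + 4-nt RTG) is reprogrammed; the rest of the 177-nt WT IS621 bridge RNA scaffold is fixed. The plasmid is co-electroporated with a WT donor plasmid; recombinase is induced with 0.1 mM IPTG and recombinants are selected on kanamycin. Recombinant barcodes are sequenced, converted to CPM, averaged over two biological replicates and corrected by the unselected control CPM. Molecule = full bridge RNA written as DNA: LTG = specificity nt 1-9, RTG = reverse complement of specificity nt 8-11, in the WT scaffold.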
For the sequence “ACCGCTTCTTGGGTTCTAACCTGTTGCCT (site ACCGCTTCTAG)”, the “recombinant barcode read abundance (log10)” value was found to be 0.494.

Turning to “ACCGCTTCTTGGGTTCTAACCTGTTGCCT (site AGCGCTTCTAG)”, the “recombinant barcode read abundance (log10)” value was found to be 0.0685.

In the case of “ACCGCTTCTTGGGTTCTAACCTGTTGCCT (site ATCGCTTCTAG)”, the “recombinant barcode read abundance (log10)” value was 0.329.

Turning to “ACCGTAGCTTGGGTTCTAACCTGTTGCCT (site ACCGTACCTAG)”, the “recombinant barcode read abundance (log10)” value came out at 0.33.

Take “ACCGTAGCTTGGGTTCTAACCTGTTGCCT (site ACCGTAGCTAG)”: the “recombinant barcode read abundance (log10)” value was 1.07.

Consider “ACCGTGACTTGGGTTCTAACCTGTTGCCT (site ACCGAGACTAG)”, for which the “recombinant barcode read abundance (log10)” value came out at 0.0423.

With “ACCGTGACTTGGGTTCTAACCTGTTGCCT (site ACCGCGACTAG)”, the “recombinant barcode read abundance (log10)” value was found to be 0.272.

In the case of “ACCGTGACTTGGGTTCTAACCTGTTGCCT (site ACCGGGACTAG)”, the “recombinant barcode read abundance (log10)” value was 0.0292.

For the sequence “ACCGTGACTTGGGTTCTAACCTGTTGCCT (site ACCGTGACTAG)”, the “recombinant barcode read abundance (log10)” value came out at 1.96.

“ACCTGACCTTGGGTTCTAACCTGTTGCGG (site ACCTGACCTCC)”: the “recombinant barcode read abundance (log10)” value was found to be 1.6.

On to “ACCTGACCTTGGGTTCTAACCTGTTGCGG (site CGGACTGCTAG)”, for which the “recombinant barcode read abundance (log10)” value is 0.12.

Take “ACCTGCCCTTGGGTTCTAACCTGTTGCCT (site ACCTGACCTAG)”: the “recombinant barcode read abundance (log10)” value was 0.154.

As to “ACCTGCCCTTGGGTTCTAACCTGTTGCCT (site ACCTGCCCTAG)”, the “recombinant barcode read abundance (log10)” value is 1.38.

On to “ACCTGCCCTTGGGTTCTAACCTGTTGCCT (site ACCTGGCCTAG)”, for which the “recombinant barcode read abundance (log10)” value was found to be 0.0614.

Regarding “ACCTGCCCTTGGGTTCTAACCTGTTGCCT (site ACCTGTCCTAG)”, the “recombinant barcode read abundance (log10)” value came out at 0.232.

Regarding “ACCTGTACTTGGGTTCTAACCTGTTGCCT (site ACCAGTACTAG)”, the “recombinant barcode read abundance (log10)” value is 0.0531.

With “ACCTGTACTTGGGTTCTAACCTGTTGCCT (site ACCCGTACTAG)”, the “recombinant barcode read abundance (log10)” value was 0.147.

Turning to “ACCTGTACTTGGGTTCTAACCTGTTGCCT (site ACCGGTACTAG)”, the “recombinant barcode read abundance (log10)” value was found to be 0.0956.

“ACCTGTACTTGGGTTCTAACCTGTTGCCT (site ACCTGTACTAG)”: the “recombinant barcode read abundance (log10)” value was determined as 0.183.

Regarding “ACCTTAGCTTGGGTTCTAACCTGTTGCGG (site ACCCTAACTCC)”, the “recombinant barcode read abundance (log10)” value was 0.263.

Regarding “ACCTTAGCTTGGGTTCTAACCTGTTGCGG (site ACCTTAGCTCC)”, the “recombinant barcode read abundance (log10)” value stood at 1.79.

On to “ACCTTGCCTTGGGTTCTAACCTGTTGCCT (site ACATTGCCTAG)”, for which the “recombinant barcode read abundance (log10)” value was found to be 0.178.

With “ACCTTGCCTTGGGTTCTAACCTGTTGCCT (site ACCTTGCCTAG)”, the “recombinant barcode read abundance (log10)” value was found to be 0.012.

Regarding “ACCTTGCCTTGGGTTCTAACCTGTTGCCT (site ACGTTGCCTAG)”, the “recombinant barcode read abundance (log10)” value is 0.875.

“ACCTTGCCTTGGGTTCTAACCTGTTGCCT (site ACTTTGCCTAG)”: the “recombinant barcode read abundance (log10)” value is 0.0414.

In the case of “ACGAATCCTTGGGTTCTAACCTGTTGCTT (site ACGAATCCTAA)”, the “recombinant barcode read abundance (log10)” value is 0.423.

As for “ACGAATCCTTGGGTTCTAACCTGTTGCTT (site ACGACTCCTAA)”, the “recombinant barcode read abundance (log10)” value came out at 0.0122.

“ACGAATCCTTGGGTTCTAACCTGTTGCTT (site ACGAGTCCTAA)”: the “recombinant barcode read abundance (log10)” value came out at 0.461.

“ACGAATCCTTGGGTTCTAACCTGTTGCTT (site ACGATTCCTAA)”: the “recombinant barcode read abundance (log10)” value was 0.0624.

For the sequence “ACGACTCCTTGGGTTCTAACCTGTTGCTG (site ACGACTCCTCA)”, the “recombinant barcode read abundance (log10)” value was 0.485.

For “ACGACTCCTTGGGTTCTAACCTGTTGCTG (site ACGCCTCCTCA)”, the “recombinant barcode read abundance (log10)” value came to 0.0825.

On to “ACGACTCCTTGGGTTCTAACCTGTTGCTG (site ACGGCTCCTCA)”, for which the “recombinant barcode read abundance (log10)” value stood at 0.0665.

As for “ACGACTCCTTGGGTTCTAACCTGTTGCTG (site ACGTCTCCTCA)”, the “recombinant barcode read abundance (log10)” value worked out at 0.0836.

In the case of “ACGACTCCTTGGGTTCTAACCTGTTGCTT (site ACGAATCCTAA)”, the “recombinant barcode read abundance (log10)” value worked out at 0.224.

For the sequence “ACGACTCCTTGGGTTCTAACCTGTTGCTT (site ACGACTCCTAA)”, the “recombinant barcode read abundance (log10)” value came out at 0.0167.

“ACGACTCCTTGGGTTCTAACCTGTTGCTT (site ACGAGTCCTAA)”: the “recombinant barcode read abundance (log10)” value is 0.0152.

With “ACGACTCCTTGGGTTCTAACCTGTTGCTT (site ACGATTCCTAA)”, the “recombinant barcode read abundance (log10)” value is 0.0399.

Regarding “ACGACTTCTTGGGTTCTAACCTGTTGCCT (site ACGACTACTAG)”, the “recombinant barcode read abundance (log10)” value was determined as 0.0265.

Regarding “ACGACTTCTTGGGTTCTAACCTGTTGCCT (site ACGACTCCTAG)”, the “recombinant barcode read abundance (log10)” value amounted to 0.167.

As to “ACGACTTCTTGGGTTCTAACCTGTTGCCT (site ACGACTGCTAG)”, the “recombinant barcode read abundance (log10)” value was found to be 0.

On to “ACGACTTCTTGGGTTCTAACCTGTTGCCT (site ACGACTTCTAG)”, for which the “recombinant barcode read abundance (log10)” value is 0.731.

On to “ACGAGTCCTTGGGTTCTAACCTGTTGCTT (site ACGAATCCTAA)”, for which the “recombinant barcode read abundance (log10)” value is 0.365.

Consider “ACGAGTCCTTGGGTTCTAACCTGTTGCTT (site ACGACTCCTAA)”, for which the “recombinant barcode read abundance (log10)” value is 0.161.

Take “ACGAGTCCTTGGGTTCTAACCTGTTGCTT (site ACGAGTCCTAA)”: the “recombinant barcode read abundance (log10)” value is 0.606.

In the case of “ACGAGTCCTTGGGTTCTAACCTGTTGCTT (site ACGATTCCTAA)”, the “recombinant barcode read abundance (log10)” value is 0.0892.

Take “ACGCCTCCTTGGGTTCTAACCTGTTGCTG (site ACGACTCCTCA)”: the “recombinant barcode read abundance (log10)” value was found to be 0.0447.

Turning to “ACGCCTCCTTGGGTTCTAACCTGTTGCTG (site ACGCCTCCTCA)”, the “recombinant barcode read abundance (log10)” value amounted to 0.384.

Regarding “ACGCCTCCTTGGGTTCTAACCTGTTGCTG (site ACGGCTCCTCA)”, the “recombinant barcode read abundance (log10)” value was found to be 0.269.

In the case of “ACGCCTCCTTGGGTTCTAACCTGTTGCTG (site ACGTCTCCTCA)”, the “recombinant barcode read abundance (log10)” value turned out to be 0.175.

With “ACGCGGCCTTGGGTTCTAACCTGTTGCCT (site ACGCGGCCTAG)”, the “recombinant barcode read abundance (log10)” value amounted to 0.103.

Turning to “ACGCGGCCTTGGGTTCTAACCTGTTGCCT (site CCGCGGCCTAG)”, the “recombinant barcode read abundance (log10)” value worked out at 0.42.

As to “ACGCGGCCTTGGGTTCTAACCTGTTGCCT (site GCGCGGCCTAG)”, the “recombinant barcode read abundance (log10)” value turned out to be 0.147.

As to “ACGCGGCCTTGGGTTCTAACCTGTTGCCT (site TCGCGGCCTAG)”, the “recombinant barcode read abundance (log10)” value turned out to be 0.108.

Regarding “ACGCGTGCTTGGGTTCTAACCTGTTGCGG (site ACGCGTGCTCC)”, the “recombinant barcode read abundance (log10)” value worked out at 0.727.

For the sequence “ACGCGTGCTTGGGTTCTAACCTGTTGCGG (site CTAGTAACTTG)”, the “recombinant barcode read abundance (log10)” value amounted to 0.019.

For the sequence “ACGGAATCTTGGGTTCTAACCTGTTGCCG (site ACGGAATCTCG)”, the “recombinant barcode read abundance (log10)” value turned out to be 0.46.

Consider “ACGGAATCTTGGGTTCTAACCTGTTGCCG (site TAAATCCCTTC)”, for which the “recombinant barcode read abundance (log10)” value worked out at 0.245.

“ACGGAGTCTTGGGTTCTAACCTGTTGCTA (site ACGGAGTCTTA)”: the “recombinant barcode read abundance (log10)” value was 1.3.

For “ACGGAGTCTTGGGTTCTAACCTGTTGCTA (site TACAGACCTCT)”, the “recombinant barcode read abundance (log10)” value is 0.0854.

Turning to “ACGGCTACTTGGGTTCTAACCTGTTGCTT (site ACGGCTACTAA)”, the “recombinant barcode read abundance (log10)” value is 0.83.

Turning to “ACGGCTACTTGGGTTCTAACCTGTTGCTT (site GGTTAGTCTCG)”, the “recombinant barcode read abundance (log10)” value was determined as 0.0618.

For the sequence “ACGGCTTCTTGGGTTCTAACCTGTTGCTA (site ACGGCTTCTTA)”, the “recombinant barcode read abundance (log10)” value amounted to 0.494.

For the sequence “ACGGCTTCTTGGGTTCTAACCTGTTGCTA (site AGGGCTTCTTA)”, the “recombinant barcode read abundance (log10)” value was 0.485.

In the case of “ACGGGTGCTTGGGTTCTAACCTGTTGCCT (site ACGGGTGCTAG)”, the “recombinant barcode read abundance (log10)” value was determined as 1.86.

Turning to “ACGGGTGCTTGGGTTCTAACCTGTTGCCT (site ACGGTTGCTAG)”, the “recombinant barcode read abundance (log10)” value was determined as 0.103.

Turning to “ACGTCACCTTGGGTTCTAACCTGTTGCCT (site ACGTCACCTAG)”, the “recombinant barcode read abundance (log10)” value worked out at 0.536.

For the sequence “ACGTCACCTTGGGTTCTAACCTGTTGCCT (site CCGTCACCTAG)”, the “recombinant barcode read abundance (log10)” value amounted to 0.0656.

In the case of “ACGTCACCTTGGGTTCTAACCTGTTGCCT (site GCGTCACCTAG)”, the “recombinant barcode read abundance (log10)” value stood at 0.221.

“ACGTCACCTTGGGTTCTAACCTGTTGCCT (site TCGTCACCTAG)”: the “recombinant barcode read abundance (log10)” value is 0.17.

On to “ACGTGGACTTGGGTTCTAACCTGTTGCTA (site ACGTGGACTTA)”, for which the “recombinant barcode read abundance (log10)” value was 1.06.

Take “ACGTGGACTTGGGTTCTAACCTGTTGCTA (site GACAATGCTAT)”: the “recombinant barcode read abundance (log10)” value was 0.181.

“ACTAAACCTTGGGTTCTAACCTGTTGCCT (site ACTAAACCTAG)”: the “recombinant barcode read abundance (log10)” value was 0.866.

For “ACTAAACCTTGGGTTCTAACCTGTTGCCT (site GCTAACCCTAG)”, the “recombinant barcode read abundance (log10)” value came out at 0.246.
